Assay results reported in patent publication US10344019B2 (priority 2010, dated 2019).
Like-named read-outs stand apart in the source and are kept apart here.

What was measured:
Experiment in all cases: microbe, parasite or virus in culture
Format in all cases: cell-based
[1] = tested on: HCV 1b RLuc cells (dicistronic genotype 1b Con1 replicon, RLuc reporter); details: Hepatitis C virus, read-out: 1b (nM)
Outline: (§1)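 Replicons used: genotype 1b Con1, 1a H77, 2a JFH-1, and a 2a JFH-1 chimera with J6-strain NS5A (M31 present), all dicistronic.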

[2] = tested on: HCV 4a Rluc cells (NS5A chimeric genotype 1b Con1 replicon with genotype 4a NS5A gene); details: Hepatitis C virus, read-out: 4a
Outline: (§2)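 Replicon cells stably carrying the listed RLuc-encoding dicistronic replicons were seeded and treated with DMSO serial dilutions of compound (10 mM stocks) diluted into culture medium. After 72 h, cells were lysed and Renilla luciferase activity measured. EC50 was derived by non-linear regression.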

[3] = tested on: HCV 1a RLuc cells (dicistronic genotype 1a H77 replicon, RLuc reporter); details: Hepatitis C virus, read-out: 1a
Outline: as §1

[4] = tested on: HCV 2a JFH-1 Rluc cells (dicistronic genotype 2a JFH-1 replicon, RLuc reporter); details: Hepatitis C virus, genotype 2a JFH-1 replicon, read-out: 2a JFH
Outline: as §1

[5] = tested on: HCV 3a RLuc cells (NS5A chimeric genotype 1b Con1 replicon with consensus genotype 3a NS5A gene); details: Hepatitis C virus
Outline: as §2

[6] = 72 h, Table 2, genotype 1a H77 replicon, 72 hours
[7] = read-out: 3a, Table 2, genotype 3a NS5A chimeric replicon
[8] = genotype 1a H77 replicon, RLuc reporter
[9] = read-out: 3a, genotype 3a NS5A chimeric 1b Con1 replicon
[10] = read-out: 3a, genotype 3a replicon

SMILES	EC50 ([1]; 72 h) [nM]	EC50 [2] [nM]	EC50 [3, 6] [nM]	EC50 ([4]; 72 h, Table 2, 72 hours) [nM]	EC50 [5, 7] [nM]	EC50 [1] [nM]	EC50 [3, 8] [nM]	EC50 ([4]; RLuc reporter) [nM]	EC50 [5, 9] [nM]	EC50 ([3]; genotype 1a replicon) [nM]	EC50 [4] [nM]	EC50 [5, 10] [nM]
COC(=O)N[C@H](C(=O)N1[C@@H]2CC[C@@H](C2)[C@H]1c1ncc(-c2ccc3c(c2)CCc2cc(-c4cnc([C@@H]5CCCN5C(=O)[C@@H](NC(=O)OC)C5CCOCC5)[nH]4)ccc2-3)[nH]1)C(C)C [Example 86]	0.034	0.001 to 0.99	0.001 to 0.999	0.001 to 0.999	1 to 4.99	–	–	–	–	–	–	–
COC(=O)NC(C(=O)N1CCC[C@H]1c1ncc(-c2ccc(-c3ccc4cc(-c5cnc([C@@H]6CCCN6C(=O)C(NC(=O)OC)C(C)C)[nH]5)ccc4c3)cc2)[nH]1)C(C)C (some centres unmarked) [Example 136]	–	0.001 to 0.99	–	–	–	0.005	0.001 to 0.999	0.001 to 0.999	0.001 to 0.99	–	–	–
COC(=O)N[C@H](C(=O)N1CCC[C@H]1c1ncc(-c2ccc3c(c2)COc2cc(-c4ccc5nc([C@@H]6[C@H]7CC[C@H](C7)N6C(=O)[C@H](NC(=O)OC)c6ccccc6)[nH]c5c4)ccc2-3)[nH]1)C(C)C [Example 94]	0.007	0.001 to 0.99	0.001 to 0.999	0.001 to 0.999	0.001 to 0.99	–	–	–	–	–	–	–
COC(=O)N[C@H](C(=O)N1CCC[C@H]1c1ncc(-c2ccc3cc(-c4ccc(-c5cnc([C@@H]6CCCN6C(=O)[C@@H](NC(=O)OC)[C@H](C)OC)[nH]5)cc4)ccc3c2)[nH]1)C(C)C [Example 241]	–	0.001 to 0.99	–	–	–	0.011	0.001 to 0.999	1 to 44	1 to 4.99	–	–	–
COC(=O)N[C@H](C(=O)N1CCC[C@H]1c1nc2ccc3cc(C#Cc4ccc(-c5cnc([C@@H]6CCCN6C(=O)[C@H](NC(=O)OC)c6ccccc6)[nH]5)cc4)ccc3c2[nH]1)C(C)C [Example 238]	–	0.001 to 0.99	–	–	–	0.005	0.001 to 0.999	0.001 to 0.999	0.001 to 0.99	–	–	–
COC(=O)N[C@H](C(=O)N1CCC[C@H]1c1ncc(-c2ccc3c(ccc4cc(-c5cnc([C@@H]6[C@H]7CC[C@H](C7)N6C(=O)[C@@H](NC(=O)OC)C(C)C)[nH]5)ccc43)c2)[nH]1)C(C)C [Example 303]	–	0.001 to 0.99	–	–	–	0.008	–	–	–	0.001 to 0.999	0.001 to 0.999	0.001 to 0.99
COC(=O)N[C@H](C(=O)N1[C@@H]2CC[C@@H](C2)[C@H]1c1ncc(-c2ccc(-c3ccc4c(ccc5nc([C@@H]6CCCN6C(=O)[C@@H](NC(=O)OC)C6CCOCC6)[nH]c54)c3)cc2F)[nH]1)C(C)C [Example 302]	–	0.001 to 0.99	–	–	–	0.021	–	–	–	0.001 to 0.999	0.001 to 0.999	0.001 to 0.99
COC(=O)N[C@H](C(=O)N1CCC[C@H]1c1ncc(-c2ccc3c(c2)OCc2c-3ccc(-c3cnc([C@@H]4CCCN4C(=O)[C@@H](NC(=O)OC)C(C)C)[nH]3)c2F)[nH]1)C(C)C [Example 331]	–	0.001 to 0.99	–	–	–	0.006	–	–	–	0.001 to 0.999	0.001 to 0.999	0.001 to 0.99
CC#Cc1cc(-c2cnc([C@@H]3[C@H]4CC[C@H](C4)N3C(=O)[C@@H](NC(=O)OC)C(C)C)[nH]2)ccc1-c1ccc(-c2cnc([C@@H]3CCCN3C(=O)[C@@H](NC(=O)OC)C(C)C)[nH]2)cc1 [Example 329]	–	0.001 to 0.99	–	–	–	0.008	–	–	–	0.001 to 0.999	0.001 to 0.999	1 to 4.99
COC(=O)N[C@H](C(=O)N1CCC[C@H]1c1nc2ccc3cc(-c4ccc(-c5[nH]c([C@@H]6C[C@H]7C[C@H]7N6C(=O)[C@@H](NC(=O)OC)C(C)C)nc5Cl)cc4)ccc3c2[nH]1)C(C)C [Example 383]	–	0.001 to 0.99	–	–	–	0.008	–	–	–	0.001 to 0.999	0.001 to 0.999	0.001 to 0.99
COC(=O)N[C@H](C(=O)N1[C@@H]2CC[C@@H](C2)[C@H]1c1ncc(-c2ccc(-c3ccc4c(ccc5nc([C@@H]6C[C@H]7C[C@H]7N6C(=O)[C@@H](NC(=O)OC)C6CCOCC6)[nH]c54)c3)cc2)[nH]1)C(C)C [Example 378]	–	0.001 to 0.99	–	–	–	0.036	–	–	–	0.001 to 0.999	0.001 to 0.999	0.001 to 0.99
COC(=O)N[C@H](C(=O)N1CCC[C@H]1c1nc2c3ccccc3c3cc(-c4ccc(-c5cnc([C@@H]6CCCN6C(=O)[C@@H](NC(=O)OC)[C@@H](C)OC)[nH]5)cc4)ccc3c2[nH]1)C(C)C [Example 301]	–	0.001 to 0.99	–	–	–	0.019	–	–	–	1 to 44	1 to 44	1 to 4.99
COC(=O)NC(C(=O)N1CCC[C@H]1c1ncc(-c2ccc3cc(-c4ccc(-c5cnc([C@@H]6CC(C)(Br)CN6C(=O)[C@@H](NC(=O)OC)C6CCOCC6)[nH]5)cc4)ccc3c2)[nH]1)c1ccccc1 (some centres unmarked) [Example 205]	–	0.001 to 0.99	–	–	–	0.016	0.001 to 0.999	0.001 to 0.999	1 to 4.99	–	–	–
COC(=O)N[C@H](C(=O)N1CCC[C@H]1c1nc2ccc3cc(-c4ccc5cc(-c6cnc([C@@H]7CCCN7C(=O)[C@@H](NC(=O)OC)C7CCOCC7)[nH]6)ccc5c4)ccc3c2[nH]1)C(C)C [Example 195]	–	0.001 to 0.99	–	–	–	0.023	0.001 to 0.999	0.001 to 0.999	1 to 4.99	–	–	–
COC(=O)N[C@H](C(=O)N1CCC[C@H]1c1ncc(-c2ccc3cc(-c4ccc(-c5cnc([C@@H]6CCCN6C(=O)C6(NC(=O)OC)CCc7ccccc76)[nH]5)cc4)ccc3c2)[nH]1)C(C)C (some centres unmarked) [Example 196]	–	0.001 to 0.99	–	–	–	0.036	1 to 44	1 to 44	> 5	–	–	–
COC(=O)N[C@H](C(=O)N1[C@@H]2CC[C@@H](C2)[C@H]1c1ncc(-c2ccc3c(c2)CCc2cc(-c4cnc([C@@H]5CCCN5C(=O)[C@@H](NC(=O)OC)C(C)OC)[nH]4)ccc2-3)[nH]1)C(C)C (some centres unmarked) [Example 85]	0.016	0.001 to 0.99	0.001 to 0.999	0.001 to 0.999	1 to 4.99	–	–	–	–	–	–	–
COC(=O)NC(C(=O)N1[C@@H]2CC[C@@H](C2)[C@H]1c1ncc(-c2ccc(-c3ccc4c(ccc5nc([C@@H]6C[C@H]7C[C@H]7N6C(=O)[C@@H](NC(=O)OC)C(C)C)[nH]c54)c3)cc2F)[nH]1)[C@@H](C)OC (some centres unmarked) [Example 321]	–	0.001 to 0.99	–	–	–	0.006	–	–	–	0.001 to 0.999	0.001 to 0.999	0.001 to 0.99
COC(=O)N[C@H](C(=O)N1CC2(CC2)C[C@H]1c1ncc(-c2ccc(-c3ccc4cc(-c5cnc([C@@H]6CCCN6C(=O)[C@H](NC(=O)OC)c6ccccc6)[nH]5)ccc4c3)cc2)[nH]1)C1CCOCC1 [Example 234]	–	0.001 to 0.99	–	–	–	0.011	0.001 to 0.999	0.001 to 0.999	0.001 to 0.99	–	–	–
COC(=O)N[C@H](C(=O)N1CCC[C@H]1c1nc2c3ccccc3c3cc(-c4ccc(-c5cnc([C@@H]6CCCN6C(=O)[C@@H](NC(=O)OC)C6CCOCC6)[nH]5)cc4)ccc3c2[nH]1)C(C)C [Example 300]	–	0.001 to 0.99	–	–	–	0.023	–	–	–	1 to 44	0.001 to 0.999	1 to 4.99
COC(=O)NC(C(=O)N1CCC[C@H]1c1nc2ccc3cc(-c4ccc5cc(-c6cnc([C@@H]7[C@H]8CC[C@H](C8)N7C(=O)[C@H](NC(=O)OC)c7ccccc7)[nH]6)ccc5c4)ccc3c2[nH]1)[C@@H](C)OC (some centres unmarked) [Example 70]	0.008	0.001 to 0.99	0.001 to 0.999	1 to 44	1 to 4.99	–	–	–	–	–	–	–
COC(=O)N[C@H](C(=O)N1CCC[C@H]1c1ncc(-c2ccc(-c3ccc4c(ccc5nc([C@@H]6SCCN6C(=O)[C@@H](NC(=O)OC)C(C)C)[nH]c54)c3)cc2)[nH]1)C(C)C [Example 333]	–	0.001 to 0.99	–	–	–	0.646	–	–	–	1 to 44	0.001 to 0.999	1 to 4.99
COC(=O)N[C@H](C(=O)N1CCC[C@H]1c1nc2c([nH]1)-c1ccc(-c3ccc4cc(-c5cnc([C@@H]6CCCN6C(=O)[C@H](NC(=O)CC6CCOCC6)c6ccccc6)[nH]5)ccc4c3)cc1CC2)C(C)C [Example 273]	–	0.001 to 0.99	–	–	–	0.042	0.001 to 0.999	0.001 to 0.999	0.001 to 0.99	–	–	–
COC(=O)N[C@H](C(=O)N1[C@@H]2CC[C@@H](C2)[C@H]1c1ncc(-c2ccc(-c3ccc4cc(-c5cnc([C@@H]6CCCN6C(=O)[C@H](NC(=O)OC)c6ccccc6)[nH]5)ccc4c3)cc2)[nH]1)C(C)C [Example 42]	0.008	0.001 to 0.99	0.001 to 0.999	0.001 to 0.999	1 to 4.99	–	–	–	–	–	–	–
COC(=O)N[C@H](C(=O)N1[C@@H]2CC[C@@H](C2)[C@H]1c1ncc(-c2ccc(-c3ccc4c(ccc5nc([C@@H]6CCCN6C(=O)[C@H](NC(=O)OC)c6ccccc6)[nH]c54)c3)cc2F)[nH]1)C(C)C [Example 312]	–	0.001 to 0.99	–	–	–	0.011	–	–	–	1 to 44	0.001 to 0.999	0.001 to 0.99
COC(=O)N[C@H](C(=O)N1CCC[C@H]1c1nc2ccc3cc(C#Cc4ccc(-c5cnc([C@@H]6CCCN6C(=O)[C@H](NC(=O)OC)c6ccccc6)[nH]5)cc4)ccc3c2[nH]1)C1CCOCC1 [Example 208]	–	0.001 to 0.99	–	–	–	0.009	0.001 to 0.999	0.001 to 0.999	0.001 to 0.99	–	–	–
